Reference: the supplement of paper PMC8967900

How the values were obtained:
Assay in all cases: selective drug sensitivity score (sDSS, relative to normal bone marrow) (sDSS (score)); higher = more potent and effective on the cell line relative to normal bone marrow cells
Settings in all cases: 72 h
HPB-ALL = test system: HPB-ALL
380 = test system: 380
RCH-ACV = test system: RCH-ACV
TANOUE = test system: TANOUE
DND-41 = test system: DND-41
JURKAT = test system: JURKAT
P30-OHKUBO = test system: P30-OHKUBO
NALM-16 = test system: NALM-16
COG-LL-317 = test system: COG-LL-317
ALL-SIL = test system: ALL-SIL
KASUMI-9 = test system: KASUMI-9
COG-LL-394h = test system: COG-LL-394h
PEER = test system: PEER
KASUMI-10 = test system: KASUMI-10
ALL-PO = test system: ALL-PO
COG-LL-319h = test system: COG-LL-319h
COG-LL-355h = test system: COG-LL-355h
MOLT-4 = test system: MOLT-4
REH = test system: REH
MOLT-14 = test system: MOLT-14
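Also: ALL cell lines in 384-well plates, five doses spanning 10,000-fold, each plate scaled between vehicle and 100 µmol/L benzalkonium chloride controls, sDSS an adapted area-under-curve metric.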

| Compound | selective drug sensitivity score (HPB-ALL) | selective drug sensitivity score 380 | selective drug sensitivity score (RCH-ACV) | selective drug sensitivity score (TANOUE) | selective drug sensitivity score (DND-41) | selective drug sensitivity score (JURKAT) | selective drug sensitivity score (P30-OHKUBO) | selective drug sensitivity score (NALM-16) | selective drug sensitivity score (COG-LL-317) | selective drug sensitivity score (ALL-SIL) | selective drug sensitivity score (KASUMI-9) | selective drug sensitivity score (COG-LL-394h) | selective drug sensitivity score (PEER) | selective drug sensitivity score (KASUMI-10) | selective drug sensitivity score (ALL-PO) | selective drug sensitivity score (COG-LL-319h) | selective drug sensitivity score (COG-LL-355h) | selective drug sensitivity score (MOLT-4) | selective drug sensitivity score (REH) | selective drug sensitivity score (MOLT-14) |
| --- | --- | --- | --- | --- | --- | --- | --- | --- | --- | --- | --- | --- | --- | --- | --- | --- | --- | --- | --- | --- |
| CCN(CC)CCCC(C)Nc1ccnc2cc(Cl)ccc12 (stereo not given) [Chloroquine] (top concentration 100000 nM) | -6.64 | -4.94 | -0.14 | -6.04 | -0.94 | -5.04 | 0.26 | -5.24 | 0.36 | -0.74 | -1.94 | -4.54 | -0.94 | -4.24 | -1.64 | -5.84 | -0.34 | -7.24 | 0.96 | -2.84 |
| CCN(CC)CCN(Cc1ccc(-c2ccc(C(F)(F)F)cc2)cc1)C(=O)Cn1c(SCc2ccc(F)cc2)nc(=O)c2c1CCC2 [Darapladib] (top concentration 1000 nM) | -1.42 | -1.42 | 7.28 | -1.42 | -0.72 | -1.42 | 0.68 | -0.52 | -1.42 | -1.42 | -1.32 | -1.42 | -1.42 | -1.22 | -1.42 | -1.42 | -1.42 | -1.42 | -1.42 | -1.42 |
| CC[C@]12C=CCN3CC[C@@]4(c5cc([C@@]6(C(=O)OC)C[C@@H]7C[C@@H](C(C)(F)F)CN(Cc8c6[nH]c6ccccc86)C7)c(OC)cc5N(C)[C@H]4[C@@](O)(C(=O)OC)[C@@H]1OC(C)=O)[C@@H]32 [Vinflunine] (top concentration 1000 nM) | 6.18 | 5.98 | 3.98 | -1.32 | 0.18 | 4.48 | 3.68 | 4.08 | 3.88 | 10.3 | 6.78 | 2.38 | 5.08 | 4.08 | 1.68 | 2.98 | 2.68 | 3.48 | 4.18 | 3.78 |
| CC(C)C(=O)Nc1ccc([N+](=O)[O-])c(C(F)(F)F)c1 [Flutamide] (top concentration 10000 nM) | -0.56 | -0.56 | 0.14 | 0.04 | -0.16 | 1.84 | 0.94 | -0.56 | -0.56 | -0.26 | 1.64 | -0.26 | 0.94 | -0.56 | -0.56 | -0.56 | -0.56 | -0.46 | -0.56 | -0.56 |
| O=C(O)CNC(=O)c1c(O)c2ccccc2n(Cc2ccccc2)c1=O [IOX-2] (top concentration 50000 nM) | 0.68 | 8.98 | 1.18 | -0.82 | -0.82 | -0.82 | -0.12 | -0.62 | -0.82 | -0.82 | -0.42 | -0.82 | -0.82 | -0.82 | -0.22 | 4.18 | -0.82 | -0.82 | -0.82 | -0.82 |
| Cn1nnc2c(C(N)=O)ncn2c1=O [Temozolomide] (top concentration 100000 nM) | -0.04 | 5.66 | 6.66 | -0.04 | -0.04 | 2.36 | 3.36 | -0.04 | -0.04 | 4.66 | 6.16 | -0.04 | -0.04 | -0.04 | -0.04 | -0.04 | -0.04 | 1.86 | 6.66 | 3.36 |
| Cc1cc(-c2ncc(CC(=O)Nc3ccc(-c4cnccn4)cn3)cc2C)ccn1 [NVP-LGK974] (top concentration 10000 nM) | -0.6 | 1 | 5.6 | 5.7 | 1.3 | 7.3 | 2.1 | 0.7 | -1.2 | 0 | 0.1 | 6.2 | 6.9 | 0.8 | 3.4 | -1.3 | 3.3 | 3.9 | 4 | 1 |
| COCCOc1cnc2ccn([C@H](C)c3nnc4c(F)cc(-c5cnn(C)c5)cn34)c(=O)c2c1 [AMG-337] (top concentration 10000 nM) | 1.54 | 3.04 | -0.06 | -0.06 | -0.06 | -0.06 | 0.84 | -0.06 | -0.06 | -0.06 | 0.14 | -0.06 | -0.06 | -0.06 | -0.06 | -0.06 | -0.06 | -0.06 | 1.24 | -0.06 |
| C=C1C[C@@H]2CC[C@@]34C[C@H]5O[C@H]6[C@@H](O3)[C@H]3O[C@H](CC[C@@H]3O[C@H]6[C@H]5O4)CC(=O)C[C@@H]3[C@@H](OC)[C@@H](C[C@H](O)CN)O[C@H]3C[C@H]3O[C@@H](CC[C@@H]1O2)C[C@@H](C)C3=C [Eribulin] (top concentration 1000 nM) | 13.2 | 24.2 | 25.4 | -8.6 | 9.1 | 26.9 | 19.6 | 17.1 | 26.3 | 23.2 | 24 | 6.7 | 23.6 | 20.2 | 16.3 | 14.8 | 4.4 | 23.3 | 18.9 | 25.2 |
